Source: publication PMC2865576 (Journal of medicinal chemistry, 2010)
Entries after “also recorded” stand apart in the source; their conditions may differ. Marks after values point to notes of the source that are not given here.

Tests used:
[1] = test system: intracellular T. gondii tachyzoites in HFF monolayers; assay: Replication assay; assay type: cell-based, Toxoplasma gondii; conditions: for Parasite doublings per vacuole, dose-response experiment: separate experiments, authors' unpublished results [37]; for Replication inhibition, result in words: added 2 h after inoculation, 24-26 h; for inhibition at 10 µM: Toxoplasma gondii, read-out: Inhibition of parasite replication
[2] = test system: tachyzoites of T.gondii strain 2F; assay: Five day growth inhibition assay; assay type: cell-based, Toxoplasma gondii; conditions: HFF cells
[3] = test system: human foreskin fibroblast (HFF) host cells; assay type: cell-based; conditions: 5 days

CC1=C(c2nc(-c3ccccc3)no2)O[C@@H]2O[C@@]3(C)CC[C@H]4[C@H](C)CC[C@@H]1[C@@]24OO3 [Compound 14]
Parasite doublings per vacuole, dose-response experiment ([1]; 1 μM): 1 doubling
Parasite doublings per vacuole, dose-response experiment ([1]; 5 μM): 1 doubling
Replication inhibition, result in words ([1]; 10 μM): effectively inhibited replication
Parasite doublings per vacuole, dose-response experiment ([1]; 10 μM): 0.5 doubling
inhibition at 10 µM [1]: 75%

CC1=C(c2nc(C3CCCCC3)cs2)O[C@@H]2O[C@@]3(C)CC[C@H]4[C@H](C)CC[C@@H]1[C@@]24OO3 [Compound 8]
Growth inhibition, result in words [2]: ineffective
Replication inhibition, result in words ([1]; 10 μM): only weakly inhibited replication

CO[C@H]1O[C@@H]2O[C@@]3(C)CC[C@H]4[C@H](C)CC[C@@H]([C@H]1C)[C@@]24OO3 [Artemether, reference compound]
Replication inhibition, result in words ([1]; 10 μM): only modest inhibition

CC1=C(c2nc(-c3ccccc3)cs2)O[C@@H]2O[C@@]3(C)CC[C@H]4[C@H](C)CC[C@@H]1[C@@]24OO3 [Compound 5]
Parasite doublings per vacuole, dose-response experiment ([1]; 1 μM): 1 doubling
Parasite doublings per vacuole, dose-response experiment ([1]; 5 μM): 1 doubling
Parasite doublings per vacuole, dose-response experiment ([1]; 10 μM): 0.5 doubling

CC1=C(c2nc(C)cs2)O[C@@H]2O[C@@]3(C)CC[C@H]4[C@H](C)CC[C@@H]1[C@@]24OO3 [Compound 2]
Parasite doublings per vacuole, dose-response experiment ([1]; 1 μM): 2 doubling
Parasite doublings per vacuole, dose-response experiment ([1]; 5 μM): 1 doubling
Parasite doublings per vacuole, dose-response experiment ([1]; 10 μM): 1 doubling

CCN(CC)C(=O)C1=C(C)[C@@H]2CC[C@@H](C)[C@@H]3CC[C@@]4(C)OO[C@@]23[C@H](O1)O4 [Compound 16]
Growth inhibition, result in words [2]: ineffective; also recorded: activity is lost

C[C@@H]1CC[C@H]2[C@@H](C)C(=O)O[C@@H]3O[C@@]4(C)CC[C@@H]1[C@]32OO4 [Artemisinin, reference compound]
Replication inhibition, result in words ([1]; 10 μM): no measurable activity

CC1=C(c2nc(-c3ccc(S(C)(=O)=O)cc3)cs2)O[C@@H]2O[C@@]3(C)CC[C@H]4[C@H](C)CC[C@@H]1[C@@]24OO3 [Compound 12]
inhibition at 10 µM [1]: 75%

CC1=C(C(=O)NCc2ccc(C(F)(F)F)cc2)O[C@@H]2O[C@@]3(C)CC[C@H]4[C@H](C)CC[C@@H]1[C@@]24OO3 [Compound 22]
Replication inhibition, result in words ([1]; 10 μM): effectively inhibited replication
inhibition at 10 µM [1]: 75%

CC1=C(C(=O)NCc2cc(Br)cc(Br)c2)O[C@@H]2O[C@@]3(C)CC[C@H]4[C@H](C)CC[C@@H]1[C@@]24OO3 [Compound 25]
Growth inhibition, result in words [2]: potent parasite inhibition
Replication inhibition, result in words ([1]; 10 μM): completely inhibited replication; also recorded: effectively inhibited replication

CC1=C(C(=O)NCc2ccc(F)c(F)c2)O[C@@H]2O[C@@]3(C)CC[C@H]4[C@H](C)CC[C@@H]1[C@@]24OO3 [Compound 23]
inhibition at 10 µM [1]: 50%

CSc1ccc(-c2csc(C3=C(C)[C@@H]4CC[C@@H](C)[C@@H]5CC[C@@]6(C)OO[C@@]45[C@H](O3)O6)n2)cc1 [Compound 11]
Replication inhibition, result in words ([1]; 10 μM): completely inhibited replication

COc1cc(Cc2cnc(N)nc2N)cc(OC)c1OC [Trimethoprim]
TD50, median cytotoxic dose [3]: ≥320 ^b μM

CC1=C(c2nc(C)c(C)s2)O[C@@H]2O[C@@]3(C)CC[C@H]4[C@H](C)CC[C@@H]1[C@@]24OO3 [Compound 3]
Parasite doublings per vacuole, dose-response experiment ([1]; 1 μM): 1 doubling
Parasite doublings per vacuole, dose-response experiment ([1]; 5 μM): 1 doubling
Parasite doublings per vacuole, dose-response experiment ([1]; 10 μM): 1 doubling

CC1=C(C(=O)NCc2ccccc2)O[C@@H]2O[C@@]3(C)CC[C@H]4[C@H](C)CC[C@@H]1[C@@]24OO3 [Compound 18]
inhibition at 10 µM [1]: 50%

CC1=C(c2nc(C)no2)O[C@@H]2O[C@@]3(C)CC[C@H]4[C@H](C)CC[C@@H]1[C@@]24OO3 [Compound 13]
inhibition at 10 µM [1]: 50%

CC1=C(C(=O)NCc2ccc(F)cc2)O[C@@H]2O[C@@]3(C)CC[C@H]4[C@H](C)CC[C@@H]1[C@@]24OO3 [Compound 20]
Replication inhibition, result in words ([1]; 10 μM): effectively inhibited replication
inhibition at 10 µM [1]: 75%

CC1=C(C(=O)NCc2cc(F)cc(F)c2)O[C@@H]2O[C@@]3(C)CC[C@H]4[C@H](C)CC[C@@H]1[C@@]24OO3 [Compound 24]
Growth inhibition, result in words [2]: potent parasite inhibition
inhibition at 10 µM [1]: 50%

CCNC(=O)C1=C(C)[C@@H]2CC[C@@H](C)[C@@H]3CC[C@@]4(C)OO[C@@]23[C@H](O1)O4 [Compound 15]
inhibition at 10 µM [1]: 50%

CC1=C(C(=O)NCc2ccc(C)cc2)O[C@@H]2O[C@@]3(C)CC[C@H]4[C@H](C)CC[C@@H]1[C@@]24OO3 [Compound 21]
inhibition at 10 µM [1]: 50%

CC1=C(c2ncc(C)s2)O[C@@H]2O[C@@]3(C)CC[C@H]4[C@H](C)CC[C@@H]1[C@@]24OO3 [Compound 4]
Parasite doublings per vacuole, dose-response experiment ([1]; 1 μM): 2 doubling
Parasite doublings per vacuole, dose-response experiment ([1]; 5 μM): 1 doubling
Parasite doublings per vacuole, dose-response experiment ([1]; 10 μM): 1 doubling
